Two compounds from article PMC2637266, “Quantification of gamma-secretase modulation differentiates inhibitor compound selectivity between two substrates Notch and amyloid precursor protein” (Molecular Brain, 2008) can be followed below.

“And” between values parts separate entries of the source, which are not always exact repeats. Identical values can stand only once. Like-named read-outs stand apart in the source and are kept apart here.

Assay [1] has as its target T1, γ-secretase cleavage of APP (Homo sapiens, UniProt P49768).
T1 construct: endogenous in cells; host or cells: HEK293 stably expressing Swedish mutant human APP695, transiently transfected with NotchΔE
The experiment in a line: Aβ in conditioned media of APP expressing HEK293 cells transfected with NotchΔE, ELISA. The note with it: for IC50: HEK293, 8 hr treatment; for Aβ levels in cultured cells: high doses. The format is cell-based. The procedure: (§1) Since many compounds could behave differently in vitro versus in culture cells, cpd E and DAPT were tested in cultured cells (Fig. 2). HEK293 cells stably expressing Swedish mutant APP were transiently transfected with NotchΔE, a truncated Notch construct that is readily cleaved by the γ-secretase to generate NICD for downstream signaling transduction. NotchΔE expressing cells were treated with increasing concentrations of DAPT or cpd E. Cell lysates were subjected to WB for measuring the generation of NICD (Fig. 2A), and conditioned media were collected for Aβ measurement by ELISA (Fig. 2B,C).
(§2) Figure 2 Generation of NICD and Aβ from NotchΔE and APP expressing cells. A. Twenty four hrs after the construct carrying NotchΔE was transfected into APP expressing HEK293 cells, cells were treated with DAPT or cpd E for 8 hr and lysed for WB with antibody 1744 to specifically detect the N-terminus of NICD. Bottom panel, the antibody against α-tubulin was applied to normalize the amounts of lysates used for WB. B. Levels of NICD determined by WB were quantified by densitometry (dotted line). Levels of Aβ generated from the γ-secretase cleavage of APP in the presence of DAPT were determined by ELISA. […] C. NICD (dotted line) and Aβ (solid line) production from cpd E-treated cells were compared. […] D. A luciferase reporter construct driven by HES1 promoter was transfected into HEK293 cells followed by treatment with cpd E or DAPT.
Sandwich ELISAs for Aβ were performed as described. The capture antibodies, 2G3 (to Aβ residues 33–40) and 4G8 (to Aβ residues 17–24), were used for Aβ40 and Aβ total species, respectively. The detecting antibodies were biotinylated 82E1 (to Aβ residues 1–16) for Aβ1–40/total or biotinylated 266 for Aβx-40 species. The use of mid-region and C-terminal capturing antibodies and N-terminal detecting antibody for chimeric "Notch-Aβ-like" peptide (Nβ*) has been documented. The combination of several capture/detecting antibodies are use to measure Aβ and Nβ* derived from different precursors. The capture antibody 2G3 and detecting antibody 82E1 were used for measuring Nβ* from APP-α-Notch expressing cells. Since the APP-α-NOTCH is the fusion protein with its juxtamembrane portion of the APP ectodomain (the α-secretase cleavage region) replaced by the corresponding sequence in Notch, the epitopes in APP sequence could still be recognized by 2G3 (C-terminus) and 82E1 (N-terminus). […]
Human embryonic kidney (HEK) 293 cells stably expressing Swedish mutant human APP695 were transfected with different cDNA constructs and maintained in 200 μg/ml G418 (Invitrogen, Carlsbad, CA). […] Conditioned media were collected for ELISA, and cell lysates were analyzed by Western blot as described. […]
In general terms: In an ELISA, binding on a coated surface is turned into a signal by an enzyme label.

The target of assay [2] is T2, γ-secretase cleavage of NotchΔE (Homo sapiens, UniProt P49768).
T2 construct: endogenous in cells; host or cells: HEK293 stably expressing Swedish mutant human APP695, transiently transfected with NotchΔE
The experiment in a line: NICD generation in NotchΔE transfected HEK293 cells, Western blot. The class given is cell-based. The note with it: for NICD generation in cultured cells: high doses. The procedure: as §1, §2
The cDNA construct NotchΔE has a c-myc tag and is a truncated Notch molecule that is an immediate substrate for γ-secretase cleavage to generate Notch intracellular domain (NICD). Two chimeric cDNA constructs express […] the juxtamembrane portion of the APP ectodomain (the α-secretase cleavage region) replaced by the corresponding sequence in Notch (APP-α-NOTCH). These cDNA constructs were provided by Dr. Dennis Selkoe. Hes-1 reporter construct (Hes-Luc) was generated by insertion three of Su(H) binding sequence
Human embryonic kidney (HEK) 293 cells stably expressing Swedish mutant human APP695 were transfected with different cDNA constructs and maintained in 200 μg/ml G418 (Invitrogen, Carlsbad, CA). Transfected cells were treated with two γ-secretase inhibitors cpd E or DAPT for 8 hr. Conditioned media were collected for ELISA, and cell lysates were analyzed by Western blot as described. Cells co-transfected with Hes-Luc and NotchΔE were treated with compounds followed by the measurement of luciferase activity (Luciferase Assay System, Promega, Madison, WI).
A general note: A western blot detects proteins with antibodies after separation by electrophoresis.

For `C[C@H](NC(=O)Cc1cc(F)cc(F)c1)C(=O)N[C@H]1N=C(c2ccccc2)c2ccccc2N(C)C1=O` [cpd E, (S,S)-2-[2-(3,5-Difluorophenyl)-acetylamino]-N-(1-methyl-2-oxo-5-phenyl-2,3-dihydro-1H-benzo [e] [1,4]diazepin-3-yl)-propionamide], the IC50 in assay [1] (IC50 for Aβ generation (levels of Aβ reduced to 50%) in cultured cells) was ~8 nM and 5 nM. Also, in assay [1], the “Aβ levels in cultured cells” value is “efficiently reduced to almost undetectable levels”. Besides, the EC50 was under 100 nM in assay [2] (EC50 for the inhibition of NICD generation in cultured cells, Fig. 2); 10 nM in assay [2] (EC50 to reduce NICD generation in cultured cells, Fig. 2B and 2C). In addition, in assay [2], the “NICD generation in cultured cells” value is listed as “could not completely eliminate NICD generation”.
Regarding `C[C@H](NC(=O)Cc1cc(F)cc(F)c1)C(=O)N[C@H](C(=O)OC(C)(C)C)c1ccccc1` [DAPT, N-[N-(3,5-Difluorophenacetyl-L-alanyl)]-S-phenylglycine t-Butyl Ester], the IC50 in assay [1] (read-out: concentration inhibiting levels of Aβ to 50% in cultured cells) was about 500 nM. Also, the “Aβ levels in cultured cells” value in assay [1] is given as “efficiently reduced to almost undetectable levels”. Further, in assay [2] (1 μM or higher), the “Notch cleavage reduced to, cell culture based assay” value is reported as “about 50%”. In assay [2] (Fig. 2B and 2C, read-out: EC50 to reduce NICD generation in cultured cells), the EC50 is about 1000 nM. Further, in assay [2], the “NICD generation in cultured cells” value is given as “could not completely eliminate NICD generation”.
